Experimental data taken from BindingDB's records for doi:10.1016/0960-894X(95)00377-6 (1995).

Legend:
[1] = molecular target: alpha-L-fucosidase (Bos taurus); assay: Compound was tested for inhibitory activity against alpha-L-fucosidase from bovine epididymis
[2] = molecular target: alpha-L-fucosidase (Bos taurus); assay: Compound was tested for inhibitory activity (competitive) against alpha-L-fucosidase from bovine kidney
[3] = molecular target: alpha-L-fucosidase (Bos taurus); assay: Compound was tested for inhibitory activity (mixed) against alpha-L-fucosidase from bovine kidney

Row | Ki [1] [µM] | Ki [2] [µM] | Ki [3] [mM] | Compound
1 | 11 | 7 | – | NCC(O)C(=O)C(=O)C(N)CO (stereo unspecified) [2,6-Diimino-hexane-1,3,4,5-tetraol]
2 | 84 | 42 | – | C[C@@H]1O[C@@H](O)[C@@H](O)[C@H](O)[C@@H]1S [(2R,3S,4S,5S,6S)-5-Mercapto-6-methyl-tetrahydro-pyran-2,3,4-triol]
3 | – | – | 4 | CC1OC(SC2CC(O)C(O)OC2CO)C(O)C(O)C1O [(2S,4S,5S)-2-((3S,5S)-5,6-Dihydroxy-2-hydroxymethyl-tetrahydro-pyran-3-ylsulfanyl)-6-methyl-tetrahydro-pyran-3,4,5-triol]
4 | – | – | 2.4 | CC(=O)NC1CC(SC2OC(C)C(O)C(O)C2O)C(CO)OC1O [N-[(3S,5S)-2-Hydroxy-6-hydroxymethyl-5-((2S,4S,5S)-3,4,5-trihydroxy-6-methyl-tetrahydro-pyran-2-ylsulfanyl)-tetrahydro-pyran-3-yl]-acetamide]
